Source: patent publication US20090136566A1, “THERAPEUTIC TRITERPENOIDS” (Regents of the University of Minnesota, priority 2006, published 2009)
“Also recorded” adds a separate entry of the source.

Experiments:
P19 stem cells = experiment: Sulforhodamine B cell proliferation/survival assay, P19 stem cells; format: cell-based, mouse; conditions: for % Control (quantity of surviving cells as percentage of DMSO-only control): P19 stem cells, 20 μg/ml, 48 h exposure; for inhibition of P19 cell growth (in words): single dose of 20 μg/ml, 48 hours
Protocol: FIG. 2 is a graph showing the results of dose-response studies comparing the effectiveness of extracts from four species of birch (B. papyrifera, B. kenaica, B. neoalaskana, and B. pendula) with betulinic acid (BetA) and betulin 3-caffeate (Bet3C). Concentrations of from 2.5 to 20 μg/ml were added to cultures of P19 stem cells for 48 h, and the numbers of surviving cells measured using sulforhodamine B assays.
(§1) Cell Proliferation Measurements: Sulforhodamine B assays (Skehan, P. et al. (1990). J. Natl. Cancer Inst. 82:1107-1112.) were conducted to measure the effects of compounds and extractives of interest on the proliferation of a number of different cell lines. Cell lines used include mouse P19 and human NT2-D1 stem cells, mouse K1735-M2 melanoma cells, human LNCaP and PC-3 prostate cancer cells, and human MCF-7 breast cancer cells. Other cell lines include normal human fibroblast BJ cells, human Caov-3 ovarian cancer cells, human U87 brain glioma cells, human HL-60 acute promyelocytic leukemia cells, human MOLT-4 acute lymphoblastic leukemia cells, human U937 histiocytic lymphoma cells, human MDA-MB-231 breast cancer cells, C2BBe1 cells (a clone of the human colorectal cell line Caco-2), human K562 chronic myeloid leukemia cells, human WM32-11 primary melanoma cells with radial growth phase-like phenotype (early primary melanoma), and human WM793 melanoma cells with vertical growth phase-like phenotype. Cells were seeded at a concentration of 2.5×10^4 cells/ml in 24-well plates, and allowed to recover for 2 days prior to drug addition. Test compounds were prepared in most instances as stock solutions in dimethylsulfoxide (DMSO). Compounds were then added to multiwell plates at final concentrations of […]. Control wells received an equivalent amount of vehicle (DMSO) only. After 1-3 days of incubation, the culture medium was decanted from each plate, and the cells fixed with cold (−10° C.) absolute methanol containing 1% acetic acid for at least 30 minutes. Subsequently, the methanol was decanted, and the plate air-dried. Sulforhodamine B (0.5% in 1% acetic acid) was added to each well, and the plate incubated at 35° C. for 1 hour. Plates were rinsed with 1% acetic acid, air-dried, and the bound dye eluted with 1 ml of 10 mM Tris buffer, pH 10. The absorbance was measured in a spectrophotometer at 540 nm; the amount of dye released is proportional to the number of cells present in the dish, and is a reliable indicator of cell proliferation.
A single dose of 20 μg/ml of either extract, pure compound, or a mixture of compounds, was added to cultures of P19 stem cells, and the growth of the cells measured after 48 hours of treatment (FIG. 1).
(§2) Stock solutions of compounds and extracts were diluted to 2 mg/ml in dimethylsulfoxide (DMSO), and subsequently added to samples at a final concentration of 20 μg/ml (10 μl/ml of a 2 mg/ml stock solution); controls received an equivalent amount of DMSO only (10 μl/ml). After 48 h, samples were fixed with methanol-acetic acid, and the quantity of surviving cells determined by sulforhodamine B staining methods (discussed above). The quantity of surviving cells is expressed as a percentage of the control (DMSO-only) cultures, which was set to 100%. […] Extracts and betulinic acid induce a relatively modest increase in the numbers of dead cells present the cultures (about 10-40%).

K1735-M2 melanoma cells = experiment: Sulforhodamine B cell proliferation assay, K1735-M2 melanoma cells; format: cell-based, mouse; conditions: 2.5-10 mg/ml, 48 h
Protocol: (§3) FIG. 3 is a bar graph showing a comparison of the effects of betulin 3-caffeate on other types of malignant cancer cell lines. P19 stem cells, K1735-M2 melanoma cells and MCF-7 breast cancer cells were treated with […] betulinic acid or betulin-3-caffeate for 48 h and cell quantity determined by sulforhodamine B assays.
as §1, with “After 1-3 days of incubation, the culture medium was decanted from each plate, and the cells fixed with cold (−10° C.) absolute methanol containing 1% acetic acid for at least 30 minutes. Subsequently, the methanol was decanted, and the plate air-dried. Sulforhodamine B (0.5% in 1% acetic acid) was added to each well, and the plate incubated at 35° C. for 1 hour. Plates were rinsed with 1% acetic acid, air-dried, and the bound dye eluted with 1 ml of 10 mM Tris buffer, pH 10.” left out

[1] = tested on: MCF-7 breast cancer cells; experiment: Sulforhodamine B cell proliferation assay, MCF-7 breast cancer cells; format: cell-based, human; conditions: 2.5-10 mg/ml, 48 h
Protocol: as §3
as §1, with “After 1-3 days of incubation, the culture medium was decanted from each plate, and the cells fixed with cold (−10° C.) absolute methanol containing 1% acetic acid for at least 30 minutes. Subsequently, the methanol was decanted, and the plate air-dried. Sulforhodamine B (0.5% in 1% acetic acid) was added to each well, and the plate incubated at 35° C. for 1 hour. Plates were rinsed with 1% acetic acid, air-dried, and the bound dye eluted with 1 ml of 10 mM Tris buffer, pH 10.” left out

P19 cells = experiment: P19 cell death by propidium iodide labeling with flow cytometry; format: cell-based, mouse; conditions: 48 hours
Excerpt: FIG. 4 is a bar graph showing measurements of P19 cell death induced by extracts, betulinic acid (BetA) and betulin 3-caffeate (Bet3C). Because the reduction in cell numbers detected by sulforhodamine B assays could result from either an inhibition of cell proliferation or an induction of cell death (or a combination of both), propidium iodide labeling was used in conjunction with flow cytometry to detect dead and dying cells with compromised plasma membranes.
as §2

[2] = Light absorption analysis by UV-VIS spectrophotometer; format: physicochemical; conditions: for Light absorption range (λ, nm): UV-VIS spectrophotometer
Excerpt: Sunscreens block the cutaneous absorption of UV radiation at 280-315 nm.

Molecule | % Control (quantity of surviving cells as percentage of DMSO-only control) (P19 stem cells) [%] | inhibition of P19 cell growth (in words) (P19 stem cells) | Light absorption range (λ, nm) [2] | ε (molar extinction coefficient) ([2]; at λmax 220) | ε (molar extinction coefficient) ([2]; at λmax 245) | ε (molar extinction coefficient) ([2]; at λmax 305) | ε (molar extinction coefficient) ([2]; at λmax 325) | also measured
O=C(O)CCCCCCCCCCCCCCCCCCCCC(=O)O [Sample 9, Docosandioic acid] | 61.5 |  |  |  |  |  |  | 
O=C(O)CCCCCCCCCCCCCCCCCCCCCO [Sample 12, 22-hydroxydocosanoic acid] | 51.4 |  |  |  |  |  |  | 
O=C(O)CCCCCCC/C=C\CCCCCCCCO [Sample 13, Cis-18-hydroxyoctadec-9-enoic acid] | 65.9 |  |  |  |  |  |  | 
C=C(C)[C@@H]1CC[C@]2(C(=O)O)CC[C@]3(C)C(CC[C@@H]4[C@@]5(C)CC[C@H](O)C(C)(C)C5CC[C@]43C)C12 (stereo partly drawn) [Sample 14, 3(β)-hydroxy-20(29)-lupaene-28-oic acid, reference compound] | 1.3 |  |  |  |  |  |  | inhibition of P19 cell growth (in words) (P19 stem cells; listed as betulinic acid): even more profoundly inhibited cell growth; also recorded: among the most active compounds in inhibiting cell proliferation; inhibition of M2 melanoma cell growth (in words) (K1735-M2 melanoma cells): significantly inhibited; inhibition of MCF-7 breast cancer cell growth (in words) [1]: do not appear to be as sensitive; increase in the quantity of dead cells present in the cultures (P19 cells): 10-40%
CC1(C)CC[C@]2(C(=O)O)CC[C@]3(C)C(=CC[C@@H]4[C@@]5(C)CC[C@H](O)C(C)(C)[C@@H]5CC[C@]43C)[C@@H]2C1 [Sample 15, Oleanolic acid] | 22.3 | less effective |  |  |  |  |  | 
C=C(C)[C@@H]1CC[C@]2(C)CC[C@]3(C)[C@H](CC[C@@H]4[C@@]5(C)CC[C@H](O)C(C)(C)[C@@H]5CC[C@]43C)[C@@H]12 [Sample 16, Lupeol] | 58.9 | less effective |  |  |  |  |  | 
C=C(C)[C@@H]1CC[C@]2(CO)CC[C@]3(C)C(CC[C@@H]4[C@@]5(C)CC[C@H](O)C(C)(C)C5CC[C@]43C)C12 (stereo partly drawn) [Sample 17, 3β,28-dihydroxy-lup-20(29)-ene] | 14.8 | less effective |  |  |  |  |  | 
C=C(C)[C@@H]1CC[C@]2(COC(=O)/C=C/c3ccc(O)c(O)c3)CC[C@]3(C)[C@H](CC[C@@H]4[C@@]5(C)CC[C@H](OC(=O)/C=C/c6ccc(O)c(O)c6)C(C)(C)[C@@H]5CC[C@]43C)[C@@H]12 [betulin-3,28-dicaffeate] |  |  | 200-350 nm | 13978 | 10018 | 13341 | 15375 | 
C=C(C)[C@@H]1CC[C@]2(CO)CC[C@]3(C)[C@H](CC[C@@H]4[C@@]5(C)CC[C@H](OC(=O)/C=C/c6ccc(O)c(O)c6)C(C)(C)[C@@H]5CC[C@]43C)[C@@H]12 [betulin-3-caffeate, (3β)-3-Caffeyloxylup-20(29)-en-28-ol] | 1.2 | even more profoundly inhibited cell growth | 210-360 nm | 2280 | 1795 | 2575 | 2865 | inhibition of P19 stem cell growth in dose response studies (in words) (P19 stem cells; 2.5 to 20 μg/ml, 48 h): more effectively inhibits P19 stem cell growth; potency in inhibiting growth of P19 cells relative to betulinic acid (P19 stem cells; concentrations of 5-10 μg/ml, 48 h): 4 to 5 fold; inhibition of P19 cell growth (in words) (P19 stem cells; listed as betulin 3-caffeate): among the most active compounds in inhibiting cell proliferation; inhibition of M2 melanoma cell growth (in words) (K1735-M2 melanoma cells): significantly inhibited; effectiveness in inhibiting cell growth compared with betulinic acid (in words) (K1735-M2 melanoma cells; K1735-M2 melanoma cells): more effective in inhibiting cell growth than betulinic acid; inhibition of MCF-7 breast cancer cell growth (in words) [1]: do not appear to be as sensitive; effectiveness in inhibiting cell growth compared with betulinic acid (in words) ([1]; MCF-7 cells): more effective in inhibiting cell growth than betulinic acid; increase in the quantity of dead cells present in the cultures (P19 cells): ~200%
C=C(C)[C@@H]1CC[C@]2(COC(=O)/C=C/c3ccc(O)c(O)c3)CC[C@]3(C)[C@H](CC[C@@H]4[C@@]5(C)CC[C@H](O)C(C)(C)[C@@H]5CC[C@]43C)[C@@H]12 [betulin-28-caffeate] |  |  | 210-360 nm | 1300 | 875 | 1190 | 1380 | 
Hydroxyoctadecanoic acid [Sample 10] | 82.6 |  |  |  |  |  |  | 
Treo-hydroxyoctadecanoic acid [Sample 11] | 67.3 |  |  |  |  |  |  | 
betulin 3,28,30-tricaffeate |  |  | 210-360 nm | 1230 | 882 | 1174 | 1353 | 
